Measured values published in article PMC3934827 (Neuropharmacology, 2014).
Read-outs that look alike come from different tables or passages of the source.

Columns and labels:
psychotic symptoms = conditions: ref DeMartinis, 2012, cited from earlier work
[1] = tested on: finger dexterity / fast hand movements; test: Klüver Board test; type: in vivo, Rhesus monkeys (Macaca mulatta)
[2] = Plasma levels of MP-10 after subcutaneous administration; conditions: rhesus monkey, sc
[3] = tested on: blood-brain barrier efflux transporters; conditions: ref Verhoest et al, 2009; cited from earlier work
stability and balance = test: Perch test; type: in vivo, Rhesus monkeys (Macaca mulatta); conditions: MP-10 0.21 or 0.67 mg/kg s.c.
brain [18F] FDG uptake = test: [18F] Fluorodeoxyglucose-PET imaging of brain; type: in vivo, Rhesus monkeys (Macaca mulatta)
[4] = tested on: cortical-, extrapyramidal motor- and autonomic-mediated functions; test: Drug Effects on Nervous System
[5] = tested on: parkinsonian motor effects; test: Standardized motor disability scale for parkinsonian primates; type: in vivo, Rhesus monkeys (Macaca mulatta)
[6] = mouse; ref Verhoest et al, 2009; cited from earlier work
PDE10A = test: Estimated PDE10A target occupancy; type: in vivo, Rhesus monkeys (Macaca mulatta); conditions: calculated from Cp,u with IC50 1.0 nM
[7] = rat; ref Schmidt et al, 2008; cited from earlier work
D2 receptor = conditions: ref Olsen et al., 2008; cited from earlier work
[8] = MP-10 doses up to 0.21 mg/kg s.c.
[9] = MP-10 0.67 and 1.33 mg/kg s.c., p < 0.001
[10] = risperidone 0.032 and 0.1 mg/kg s.c.

In the case of `Cn1cc(-c2ccncc2)c(-c2ccc(OCc3ccc4ccccc4n3)cc2)n1` [MP-10, 2-[4-(1-methyl-4-pyridin-4-yl-1H-pyrazol-3-yl)-phenoxymethyl]-quinoline], the “primary endpoint: reduction in psychotic symptoms” value (psychotic symptoms; Phase 2A trial NCT01175135) is listed as “did not meet the primary endpoint”, the “adverse effects in Phase 2A trial” value (psychotic symptoms) is listed as “sedation and side effects consistent with target engagement” and the “Klüver board task performance” value ([1]; MP-10 0.67 and 1.33 mg/kg s.c.) is listed as “failed to perform the task”. The “Klüver board index of success” value [1, 8] was “no effect”, the “Klüver board action time” value ([1]; MP-10 doses up to 0.21 mg/kg s.c., 90 min after injection) was “no effect” and the Tmax [2] was 1 to 2 h. The “substrate for blood-brain barrier efflux transporters” value [3] was “no evidence that it is a substrate”, the Perch test performance (stability and balance) was “did not show any compromise” and the “Perch test scores before and 90 min after injection” value (stability and balance) was “zero”. The “SUV of [18F] FDG in striatal regions (pooled) vs vehicle” value (brain [18F] FDG uptake; MP-10 0.211 or 1.33 mg/kg s.c., p < 0.01, n=4) was “statistically significant increases”, the “SUV of [18F] FDG in cortical regions (pooled) vs vehicle” value (brain [18F] FDG uptake; MP-10 0.211 or 1.33 mg/kg s.c., p < 0.02, n=4) was “statistically significant increases” and the “FDG SUV in other brain regions relative to control (vehicle)” value (brain [18F] FDG uptake; two doses of MP-10 (0.21, 1.33 mg/kg s.c.)) was “No significant differences”. The DENS attentiveness [4, 9] was “decreased attentiveness”, the DENS involuntary movements [4, 9] was “induced oral dyskinesias” and the DENS reactivity [4, 9] was “decreased attentiveness and reactivity”. The “total DENS scores” value [4, 9] was “significant effects”, the DENS involuntary movements [4, 8] was “no effect” and the DENS salivation ([4]; MP-10 s.c.) was “non-significant increases”. The “global motor disability scores” value ([5]; MP-10 0.021, 0.067, or 0.21 mg/kg s.c., 3 hours after administration) was “no effect”, the social interaction ([5]; MP-10 0.67 and 1.33 mg/kg s.c., similar at both doses, p < 0.001) was “decrease in social interaction” and the “impairment in hand movements” value [5, 9] was “mild and similar at both doses”. For the same compound, the “impairment in leg movements” value [5, 9] was “mild and similar at both doses”, the mobility score [5, 9] was “increased in a dose dependent fashion” and the posture score [5, 9] was “increased in a dose dependent fashion”. For the same compound, the “global motor disability scores” value ([5]; MP-10 0.67 and 1.33 mg/kg s.c., p < 0.001, 3 of the 4 monkeys) was “increase in global scores”, the “brain-to-plasma ratio (total brain-to-total plasma concentrations)” value [6] was ~ 0.9 and the “projected PDE10A target occupancy” value (PDE10A; 0.21 mg/kg s.c., 1 h) was 16 ± 1%. The “projected PDE10A target occupancy” value (PDE10A; 0.21 mg/kg s.c., 2 h) was 19 ± 3%, the “projected PDE10A target occupancy” value (PDE10A; 0.21 mg/kg s.c., 3 h) was 17 ± 1% and the “projected PDE10A target occupancy” value (PDE10A; 0.67 mg/kg s.c., 1 h) was 41 ± 5%. For the same compound, the “projected PDE10A target occupancy” value (PDE10A; 0.67 mg/kg s.c., 2 h) was 47 ± 2%, the “projected PDE10A target occupancy” value (PDE10A; 0.67 mg/kg s.c., 3 h) was 42 ± 3% and the “brain-to-plasma ratio (total brain-to-total plasma concentrations)” value [7] was ~ 0.9.

In the case of `Cc1nc2n(c(=O)c1CCN1CCC(c3noc4cc(F)ccc34)CC1)CCCC2` [risperidone, reference compound], the “D2 receptor TO at which antipsychotic efficacy is observed” value (D2 receptor) is listed as > 55%, the “Klüver board action time, baseline vs 90 min” value ([1]; risperidone 0.01 mg/kg s.c.) is listed as “No significant differences” and the “Klüver board action time” value ([1]; risperidone 0.032 and 0.1 mg/kg s.c., at cut off) is listed as 60 s. For the same compound, the “behaviors scored using the DENS scale” value ([4]; risperidone 0.01 mg/kg s.c.) was “minimal effects”, the DENS involuntary movements ([4]; risperidone 0.032 mg/kg s.c., all monkeys) was “significant involuntary movements” and the “intensity of involuntary movements” value ([4]; risperidone 0.1 mg/kg s.c. vs 0.032 mg/kg) was “further increased”. For the same compound, the “DENS attentiveness, compared with MP-10” value ([4]; risperidone s.c.) was “less impairment”, the “DENS reactivity, compared with MP-10” value ([4]; risperidone s.c.) was “less impairment” and the “motor disability scores (motor behavior)” value ([5]; risperidone 0.01 mg/kg s.c., 3 hours after administration) was “no effect”. The “hand movement score, in comparison to MP-10” value [5, 10] was “greater, dose-dependent increases”, the “leg movement score, in comparison to MP-10” value [5, 10] was “greater, dose-dependent increases” and the “mobility score, in comparison to MP-10” value [5, 10] was “notably less effect”. For the same compound, the “posture score, in comparison to MP-10” value [5, 10] was “roughly comparable increases” and the motor disability scores ([5]; risperidone 0.032 and 0.1 mg/kg s.c., dose- and time-dependent, p < 0.001) was “significant increases”.
